According to PMC6735331, “Competitive α-glucosidase inhibitors, dihydrobenzoxanthones, from the barks of Artocarpus elasticus” (Journal of Enzyme Inhibition and Medicinal Chemistry, 2019):
“Also recorded” adds a separate entry of the source. Like-named read-outs stand apart in the source and are kept apart here.

Assays:
[1] = target: T1, α-glucosidase (EC3.2.1.20) (Saccharomyces cerevisiae, UniProt P53341); assay: biochemical
T1 construct: purchased Sigma Aldrich
Description: The inhibitory activity of α-glucosidase (EC3.2.1.20) was carried out with a few changes from literature reported method, using p-nitrophenyl-α-D-glucopyranoside at optimal pH of 6.8 (50 mM phosphate buffer)[3]. Inhibitors were dissolved and diluted to a needed concentration in DMSO. […] The absorbance of formed p-nitrophenol immediately measured with a wavelength of 405 nm at 37 °C. […] Calculation of the % of inhibition was as follows: (1) Activity (%)=100[1+([I]/IC50)]

[2] = target: T1, α-glucosidase (EC3.2.1.20); assay: α-Glucosidase enzyme kinetics (Lineweaver–Burk, Dixon plots, secondary plots, Yang's method); type: biochemical; design: Vmax: unit not given here; conditions: for Kik/Kiv: Yang's method; for Kinetic mode: double reciprocal (Lineweaver–Burk) plots; for KIS: inhibitor binding with enzyme-substrate complex, secondary plots of intercepts
Description: Similarly, the enzyme kinetic modes were clarified using a different p-nitrophenyl-α-D-glucopyranoside substrate (0, 0.5, 1, and 2 mM) and inhibitors concentrations. Analysis of the data used to determine the individual parameters of curves was prepared in the nonlinear regression program Sigma Plot (SPCC Inc., Chicago, IL, USA). The kinetic parameters, Michaelis–Menten (Km) and maximum velocity (Vmax), were found using Lineweaver–Burk plots. The dissociation constants between inhibitor and enzyme (Ki) were found from Dixon plots. Two inhibition constants for inhibitor binding with either free or enzyme-substrate complex, KI or KIS, were calculated from secondary plots of the slopes of the straight lines or vertical intercept (1/ Vmaxapp ), respectively, verse the concentration of inhibitors by Equations (2)–(4). Kik and Kiv rate constants were calculated according to Equations (5) and (6) proposed by Yang et al.[20]: (2) 1/V=Km/Vmax(1 + [I]/KI)1/S + 1/Vmax (3) Slope =Km/KIVmax[I] +Km/Vmax (4) Intercept = 1/KISVmax[I] +[…] (5) Km=Km0× (1 + [I]/Kik) (6) Vm=Vm0× (1 + [I]/Kiv)

α-glucosidase [3] = target: T2, α-glucosidase (Saccharomyces cerevisiae, UniProt P53341); assay: Binding affinity measurement by fluorescence quenching (Stern–Volmer); conditions: for KSV: Stern–Volmer constant
T2 construct: purchased Sigma Aldrich
T2 sequence (P53341 whole entry): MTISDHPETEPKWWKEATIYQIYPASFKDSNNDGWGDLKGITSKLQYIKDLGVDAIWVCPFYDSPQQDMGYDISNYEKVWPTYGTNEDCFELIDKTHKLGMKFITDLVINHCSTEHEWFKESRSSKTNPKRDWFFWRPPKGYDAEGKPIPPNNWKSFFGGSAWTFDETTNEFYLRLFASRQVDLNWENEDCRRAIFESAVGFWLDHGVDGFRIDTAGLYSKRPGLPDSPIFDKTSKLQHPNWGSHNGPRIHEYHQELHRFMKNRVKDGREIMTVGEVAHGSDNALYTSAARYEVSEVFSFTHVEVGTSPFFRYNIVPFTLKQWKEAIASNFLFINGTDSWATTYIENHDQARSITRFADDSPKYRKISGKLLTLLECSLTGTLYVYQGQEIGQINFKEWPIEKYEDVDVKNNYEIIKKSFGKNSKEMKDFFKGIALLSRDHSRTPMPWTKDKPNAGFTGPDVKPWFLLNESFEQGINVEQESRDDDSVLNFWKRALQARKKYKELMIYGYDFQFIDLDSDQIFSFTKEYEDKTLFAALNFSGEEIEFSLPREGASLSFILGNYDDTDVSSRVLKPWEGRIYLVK
Description: 180 µL of 50 mM phosphate buffer (pH 6.8) with 10 µL of 0.2 unit/mL α-glucosidase were added into the 96-well black immuno-plates then 10 µL different concentrations (2–32 µM) of inhibitor were added. Fluorescent emission spectra were recorded from 300 to 400 nm, emission slits adjusted to 2.0 nm, and the excitation was 250 nm, using spectrophotometer (SpectraMax M3). There was no significant emission from any ingredient in the assay system under given experimental conditions (i.e. emission from 300 to 400 nm). A level of affinity was expressed with KSV, which was analysed using the Stern–Volmer equation: (12) […]=1+KSV[Qf] where F0 and F are the fluorescence intensities in the absence and presence of a quencher. Qf is a concentration of compounds.

α-glucosidase [4] = target: T2, α-glucosidase; assay: Progress curves and time-dependent (slow-binding) assay; type: biochemical
Description: Time-dependent assays of inhibitors at the different preincubation time (0, 15, 30, 45, 60 and 80 min) were accomplished using 0.05 unit/mL final concentration of α-glucosidase and p-nitrophenyl-α-D-glucopyranoside substrate (1 mM) in 50 mM phosphate buffer (pH 6.8) at 37 °C[21]. The progress curves were monitored every 30 s for 30 min. Furthermore, to clearly understand the time-dependent inhibition mode of α-glucosidase, inhibitors were assayed using different concentrations. Accordingly, the progress curves were calculated using Equations (7)–(11). Analysis of the data was prepared by the nonlinear regression program Sigma Plot (SPCC Inc., Chicago, IL, USA): (7) [P]t/[E]= vst+ vi−vs/kobs(1−e^−kobst) where [P]t is the concentration of product formed and [E] is the total enzyme concentration. (8) v/v0= exp (−kobst) (9) Enz+I⇄k4k3Enz−I (10) kobs=k4(1+[I]/Kiapp) (11) Kiapp=k4/k3

[5] = target: T1, α-glucosidase (EC3.2.1.20); assay: α-Glucosidase enzyme kinetics (Lineweaver–Burk, Dixon plots, secondary plots, Yang's method); type: biochemical; conditions: enzyme activity vs. enzyme concentration at different inhibitor concentrations
[6] = p-NPG substrate, 50 mM phosphate buffer pH 6.8, 37 °C, read-out: IC50
[7] = from Dixon plots, read-out: Ki (inhibition constant)
[8] = fluorescence quenching, read-out: KA (converted)
[9] = slow-binding fit, Equations (10) and (11)

T1 sequence (P53341 whole entry): as above

Row | Structure (SMILES) | IC50 [1, 6] | Vmax ([2]; [I] 7.5 μM) | Kik/Kiv ([2]; [I] 7.5 μM) | Vmax ([2]; [I] 15.0 μM) | Kik/Kiv ([2]; [I] 15.0 μM) | Vmax ([2]; [I] 30.0 μM) | Kik/Kiv ([2]; [I] 30.0 μM) | Kinetic mode [2] | Ki [2, 7] | KSV (α-glucosidase [3]; pH 6.8, 37 °C) | Kd (α-glucosidase [3]; [8]) | KIS [2] | KSV (α-glucosidase [3]) | other results
1 | C=C(C)[C@H]1Cc2c(oc3c4c(cc(O)c3c2=O)OC(C)(C)C=C4)-c2c(O)cc(O)c(O)c21 [Compound 2, artobiloxanthone] | 8.6 ± 0.5 µM | 9.7056 | 76.6587 | 9.6712 | 102.4604 | 9.8012 | 209.3396 | Competitive | 5.1 µM | 1.53 ×10^5 L·mol^–1 | 1.32 µM | – | – | –
2 | CC(C)=CCc1c(-c2cc(O)c(O)cc2O)oc2c3c(cc(O)c2c1=O)OC(C)(C)C=C3 [Compound 6, artonin E] | – | 5.0352 | 3.7049 | 4.2992 | 2.5098 | 3.6219 | 1.8101 | Mixed type I | – | 0.93 ×10^5 L·mol^–1 | – | 51.7 µM | 0.93 × 10^5 Lmol^−1 | IC50 [1]: 16.2 ± 0.8 µM; Ki ([2]; KI, inhibitor binding with free enzyme, secondary plots of slopes): 15.4 µM; Ki ([2]; Ki (inhibition constant), from Dixon plots): 15.8 µM; Kd (α-glucosidase [3]): 1.28 µM
3 | C=C(C)C1Cc2c(oc3cc(OC)cc(O)c3c2=O)-c2c(O)cc(O)c(O)c21 (centres unmarked) [Compound 1, 1,3,4,8-tetrahydroxy-10-methoxy-5-(prop-1-en-2-yl)-5,6-dihydro-benzo[c]xanthen-7-one] | 7.6 ± 0.2 µM | – | – | – | – | – | – | Competitive | 2.9 µM | 1.84 ×10^5 L·mol^–1 | 1.27 µM | – | 1.84 × 10^5 Lmol^−1 | Vmax ([2]; [I] 4.0 μM): 6.30; Kik/Kiv ([2]; [I] 4.0 μM): 55.80; Vmax ([2]; [I] 8.0 μM): 6.50; Kik/Kiv ([2]; [I] 8.0 μM): 48.88; Vmax ([2]; [I] 16.0 μM): 7.55; Kik/Kiv ([2]; [I] 16.0 μM): 29.79; Time-dependent inhibition mode (α-glucosidase [4]; preincubation time dependence, kobs vs [I]): competitive and reversible simple slow-binding; also recorded: slow-binding inhibitor; k3 (α-glucosidase [4]; [9]): 728 M⁻¹ s⁻¹; k4 (α-glucosidase [4]; [9]): 0.0166 min⁻¹; Ki (α-glucosidase [4]; slow-binding fit, Kiapp = k4/k3): 0.38 µM; Reversibility of inhibition [5]: reversible inhibitor
4 | CC1(C)C=Cc2c(cc(O)c3c(=O)c4c(oc23)-c2c(O)cc(O)c3c2C(C4)C(C)(C)O3)O1 (centres unmarked) [Compound 4, cycloartobiloxanthone] | 9.6 ± 0.6 µM | 6.3816 | 16.6987 | 7.3692 | 11.4837 | 7.4627 | 20.2662 | Competitive | 5.8 µM | 1.29 ×10^5 L·mol^–1 | 1.27 µM | – | – | –
5 | CC1(C)Oc2c(O)cc(O)c3c2C1Cc1c-3oc2cc(O)cc(O)c2c1=O (centres unmarked) [Compound 3, artoindonesianin P] | 25.4 ± 0.7 µM | – | – | – | – | – | – | Competitive | 12.6 µM | 0.51 ×10^5 L·mol^–1 | 1.75 µM | – | 0.51 × 10^5 Lmol^−1 | Vmax ([2]; [I] 17.5 μM): 6.6800; Kik/Kiv ([2]; [I] 17.5 μM): 23.8593; Vmax ([2]; [I] 35 μM): 6.7889; Kik/Kiv ([2]; [I] 35 μM): 31.6240; Vmax ([2]; [I] 70 μM): 6.7204; Kik/Kiv ([2]; [I] 70 μM): 75.7804
6 | CC(C)=CCCC1(C)C=Cc2c(cc(O)c3c(=O)c(CC=C(C)C)c(-c4cc(O)c(O)cc4O)oc23)O1 (single isomer, unassigned; (-)) [Compound 5, (-)-2-(2,4,5-trihydroxyphenyl)-3-(3-methyl-2-buten-1-yl)-5-hydroxy-8-methyl-8-(4-methyl-3-penten-1-yl)-4H,8H-benzo[1,2-b:3,4-b']dipyran-4-one] | 8.8 ± 0.3 µM | 4.74 | 3.79 | 3.67 | 3.18 | 2.79 | 3.25 | Mixed type I | – | 1.63 ×10^5 L·mol^–1 | 1.23 µM | 20.4 µM | – | Ki ([2]; inhibitor binding with free enzyme, secondary plots of slopes, read-out: KI): 5.4 µM
